Format in all cases: biochemical
In one test the target is S. aureus DltA (Staphylococcus aureus (strain NCTC 8325 / PS 47), UniProt Q2FZW6). Put plainly: in vitro DltA activity assay (luminescence), S. aureus DltA. Conditions: recombinant DltA, 30 min pre-incubation, 0.5 mM D-Alanine, 0.5-5 μM ATP; read-out: S. aureus DltA IC50. How it is done:
(§1) The effect of the compounds of the invention on DltA enzymes has been based on the measure of their inhibition of DltA activity in vitro. To this end, recombinant proteins DltA were expressed and purified after cloning of the genes of S. aureus, E. faecalis, E. faecium and S. agalactiae as described thereafter. The capacity of the compounds of the invention to inhibit DltA enzymatic activity was assessed using the DltA assays as described below:
(§2) The dltA gene was amplified from chromosomal DNA of S. aureus, E. faecalis, E. faecium and S. agalactiae and introduced into E. coli BL21 (Invitrogen, Carlsbad, Calif.) following manufacturer's instruction. Bacteria were grown at 37° C. under aerobic conditions and isopropyl-beta-D-thiogalactopyranoside (IPTG) was added to 0.5-1 mM when OD600 of the bacterial culture had reached 0.5. After a further incubation for 3 hours, cells were harvested by centrifugation. Purification of the recombinant DltA protein was performed by affinity chromatography on nickel-nitrilotriacetic acid (Ni-NTA) column following manufacturer's instructions (Qiagen). Fractions containing recombinant DltA protein were adjusted to 50% glycerol and stored at −20° C. until use.
(§3) The binding potency of the inhibitors against DltA enzyme was assessed by IC50 determination in an in vitro DltA activity assay. The assay buffer “AB” contained 50 mM Hepes pH8.0, 10 mM MgCl2, 50 mM KCl, 0.012% Triton-X100, 10 mM DTT and 100 nM Myelin-basic protein. The following components were added in a white polystyrene Costar plate up to a final volume of 30 μL: 3 μL DMSO, or inhibitor dissolved in DMSO and 27 μL DltA enzyme in AB. After 30 min of pre-incubation at room temperature, 30 μL of Substrates mix in AB were added in each well to a final volume of 60 μL. This reaction mixture was then composed of DltA (produced in house from S. aureus, E. faecalis, E. faecium and S. agalactiae), 0.5 mM D-Alanine (Sigma), 0.5-5 μM ATP (Sigma) and 0.05 u/ml inorganic pyrophosphatase (Sigma) in assay buffer. After typically 1-2 hours of incubation at room temperature (conversion rate around 30%), 30 μL of the revelation mix were added to a final volume of 90 μL, including the following constituents at the respective final concentrations: 10000 u/ml luciferase (Sigma), 30 μM D-luciferin (Sigma), 100 μM N-acetylcysteamine (Aldrich). Luminescence intensity was immediately measured on a Fluostar Optima (BMG) (excitation 360 nm, emission 520 nm) and converted into inhibition percentages. For IC50 determinations (Inhibitory Concentration 50%) the inhibitor was added at 6 to 10 different concentrations and the related inhibitions were fitted to a classical Langmuir equilibrium model using XLFIT (IDBS).
(§4) For compounds interfering with the luminescent signal (quenching), the same experiment without DltA enzyme was performed to allow quenching determination and correction.

A further test has as its target E. feacalis DltA (Enterococcus faecalis, UniProt Q830N0). Put plainly: in vitro DltA activity assay (luminescence), E. faecalis DltA. Conditions: recombinant DltA, 30 min pre-incubation, 0.5 mM D-Alanine, 0.5-5 μM ATP; read-out: E. feacalis DltA IC50. As to the method: as §1, §2, §3, §4
The target in a further test is E. feacium DltA (Enterococcus faecium, UniProt Q3XZT7). Kind of test: in vitro DltA activity assay (luminescence), E. faecium DltA. Conditions: recombinant DltA, 30 min pre-incubation, 0.5 mM D-Alanine, 0.5-5 μM ATP; read-out: E. feacium DltA IC50. How it is done: as §1, §2, §3, §4
Sequence of E. feacium DltA (Q3XZT7 1-504): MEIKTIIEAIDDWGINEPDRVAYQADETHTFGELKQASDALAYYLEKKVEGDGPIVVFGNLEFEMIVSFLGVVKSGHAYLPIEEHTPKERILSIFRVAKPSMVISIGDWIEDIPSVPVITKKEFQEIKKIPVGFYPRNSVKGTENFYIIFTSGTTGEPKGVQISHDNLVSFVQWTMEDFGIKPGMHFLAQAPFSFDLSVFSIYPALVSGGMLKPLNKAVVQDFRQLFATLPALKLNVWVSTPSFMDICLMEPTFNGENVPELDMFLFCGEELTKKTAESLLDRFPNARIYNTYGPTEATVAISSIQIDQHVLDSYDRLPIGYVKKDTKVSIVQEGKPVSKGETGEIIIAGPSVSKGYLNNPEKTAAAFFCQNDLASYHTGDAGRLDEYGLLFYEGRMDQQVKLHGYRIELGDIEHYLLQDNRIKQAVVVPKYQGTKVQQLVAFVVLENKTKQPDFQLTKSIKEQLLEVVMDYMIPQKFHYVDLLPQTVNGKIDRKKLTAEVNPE
Another test concerns the target S. Agalactiae DltA (Streptococcus agalactiae serotype III (strain NEM316), UniProt Q8VM67). Put plainly: in vitro DltA activity assay (luminescence), S. agalactiae DltA. Particulars: recombinant DltA, 30 min pre-incubation, 0.5 mM D-Alanine, 0.5-5 μM ATP; read-out: S. Agalactiae DltA IC50. As to the method:
as §1, §2, §3, §4

Consider 20 molecules from patent US10301305B2 (priority 2014, dated 2019).

Each structure is given as a SMILES string. Where a name gives a salt, the structure may show the parent alone.

Sequence of E. feacalis DltA (Q830N0 1-506): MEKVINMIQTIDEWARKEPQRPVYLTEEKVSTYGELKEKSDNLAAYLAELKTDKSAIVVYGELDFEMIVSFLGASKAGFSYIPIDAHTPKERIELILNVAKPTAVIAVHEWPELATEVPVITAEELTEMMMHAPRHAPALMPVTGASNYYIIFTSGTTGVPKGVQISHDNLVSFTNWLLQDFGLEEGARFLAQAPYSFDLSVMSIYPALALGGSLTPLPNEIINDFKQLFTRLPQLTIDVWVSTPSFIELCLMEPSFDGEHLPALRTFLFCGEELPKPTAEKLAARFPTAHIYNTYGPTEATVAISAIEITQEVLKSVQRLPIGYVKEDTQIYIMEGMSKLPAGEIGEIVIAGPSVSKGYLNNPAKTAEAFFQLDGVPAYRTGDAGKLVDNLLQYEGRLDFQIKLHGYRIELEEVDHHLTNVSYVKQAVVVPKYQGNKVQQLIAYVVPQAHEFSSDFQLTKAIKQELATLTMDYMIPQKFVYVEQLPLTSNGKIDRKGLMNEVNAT

For the molecule `COCCn1cnc2cc(-c3cc(N(C)CCN(C)C)c(C(N)=O)c4[nH]cnc34)ccc21` [Example 135], the half-inhibitory concentration (IC50) on S. aureus DltA was 17 nM; at E. feacalis DltA it was 69 nM; on E. feacium DltA, 45 nM; on S. Agalactiae DltA it was 840 nM.
`OCC1(CO)CCN(c2cc3[nH]cnc3c(-c3ccc4c(c3)ncn4C3CCCCC3)n2)CC1` [Example 20, {1-[4-(1-Cyclohexyl-1H-benzimidazol-5-yl)-1H-imidazo[4,5-c]pyridin-6-yl]-4-hydroxymethyl-piperidin-4-yl}-methanol]: the half-maximal inhibitory concentration (IC50) on S. aureus DltA amounted to 12 nM; at E. feacalis DltA it was 56 nM; on E. feacium DltA, 170 nM; on S. Agalactiae DltA it was 290 nM.
As for `OC[C@H]1CCN(c2cc3[nH]cnc3c(-c3ccc4c(c3)ncn4C3CCCCC3)n2)C[C@@H]1O` [Example 19, (3R,4R)-1-[4-(1-Cyclohexyl-1H-benzimidazol-5-yl)-1H-imidazo[4,5-c]pyridin-6-yl]-4-hydroxymethyl-piperidin-3-ol], the IC50 at S. aureus DltA is 33 nM; at E. feacalis DltA it was 460 nM; at E. feacium DltA, 1800 nM; at S. Agalactiae DltA, 1900 nM.
The corresponding values for `CN(C)CCN(C)c1cc(-c2ccc3c(c2)ncn3-c2ccccc2)c2nc[nH]c2c1C(N)=O` [Example 204, 5-[2-(dimethylamino)ethyl-methyl-amino]-7-(1-phenylbenzimidazol-5-yl)-3H-benzimidazole-4-carboxamide] are 17 nM, 12 nM, 58 nM and 1400 nM.
`CN(C)CCOc1cc(-c2cnc3c(c2)CCCO3)c2nc[nH]c2c1C(N)=O` [Example 182, 7-(3,4-Dihydro-2H-pyrano[2,3-b]pyridin-6-yl)-5-(2-dimethylamino-ethoxy)-3H-benzimidazole-4-carboxamide methanesulfonic acid salt]: the IC50 on S. aureus DltA was found to be 4.8 nM; on E. feacalis DltA, 4.5 nM; at E. feacium DltA, 59 nM; at S. Agalactiae DltA it was 480 nM.
Taken in the same sequence, the figures for `NC(=O)c1c(F)cc(-c2ccc3c(c2)ncn3C2CCCCC2)c2nc[nH]c12` [Example 63, 1′-Cyclohexyl-6-fluoro-1H,1′H-[4,5′]bibenzimidazolyl-7-carboxamide] were 49 nM, 43 nM, 83 nM and 2000 nM.
Taken in the same sequence, the figures for `CN(C)CCN(C)c1cc(-c2cncc(C3CC3)c2)c2nc[nH]c2c1C(N)=O` [Example 202, 4-(5-cyclopropylpyridin-3-yl)-6-((2-(dimethylamino)ethyl)-(methyl)amino)-1H-benzo[d]imidazole-7-carboxamide] were 110 nM, 95 nM, 190 nM and 2000 nM.
The corresponding values for `O=[N+]([O-])c1c(N2CC[C@H](CO)[C@@H](O)C2)cc(-c2ccc3c(c2)ncn3C2CCCCC2)c2nc[nH]c12` [Example 44, (3R,4R)-1-(1′-Cyclohexyl-7-nitro-1H,1′H-[4,5′]bibenzimidazolyl-6-yl)-4-hydroxymethyl-piperidin-3-ol] are 49 nM, 71 nM, 96 nM and 1500 nM.
`CN(C)CCN(CCO)c1cc(-c2ccc3c(c2)ncn3C2CCCCC2)c2nc[nH]c2c1C(N)=O` [Example 131, 1′-Cyclohexyl-6-[(2-dimethylamino-ethyl)-(2-hydroxy-ethyl)-amino]-1H,1′H-[4,5′]bibenzimidazolyl-7-carboxamide]: the concentration for half-maximal inhibition (IC50) on S. aureus DltA is 75 nM; on E. feacalis DltA, 40 nM; on E. feacium DltA, 230 nM; at S. Agalactiae DltA it was 1900 nM.
Take `OCC1(CO)CCN(c2cc(-c3ccc4c(c3)ncn4C3CCCCC3)c3nc[nH]c3c2)CC1` [Example 34, [1-(1′-Cyclohexyl-1H,1′H-[4,5′]bibenzimidazolyl-6-yl)-4-hydroxymethyl-piperidin-4-yl]-methanol]: the concentration for half-maximal inhibition (IC50) was found to be 110 nM at S. aureus DltA, 79 nM at E. feacalis DltA, 170 nM at E. feacium DltA and 380 nM on S. Agalactiae DltA.
Taken in the same sequence, the figures for `N#Cc1c(N2CCC(CO)(CO)CC2)cc(-c2ccc3c(c2)ncn3C2CCCCC2)c2nc[nH]c12` [Example 61, 6-(4,4-Bis-hydroxymethyl-piperidin-1-yl)-1′-cyclohexyl-1H,1′H-[4,5′]bibenzimidazolyl-7-carbonitrile] were 240 nM, 110 nM, 230 nM and 4700 nM.
Consider `CN(CCO)c1cc(-c2ccc3c(c2)ncn3C2CCCCC2)c2nc[nH]c2c1C#N` [Example 92], for which the IC50 was determined as 190 nM on S. aureus DltA, 240 nM at E. feacalis DltA, 600 nM at E. feacium DltA and 8200 nM at S. Agalactiae DltA.
Taken in the same sequence, the figures for `COCCN(C)c1cc(-c2ccc3c(c2)ncn3C2CCCCC2)c2nc[nH]c2c1C(N)=O` [Example 176, 1′-Cyclohexyl-6-[(2-methoxy-ethyl)-methyl-amino]-1H,1′H-[4,5′]bibenzimidazolyl-7-carboxamide] were 940 nM, 35 nM, 190 nM and 2300 nM.
On to `O=C(NO)c1c(F)cc(-c2ccc3c(c2)ncn3C2CCCCC2)c2nc[nH]c12` [Example 111, 1′-Cyclohexyl-6-fluoro-1H,1′H-[4,5′]bibenzimidazolyl-N-hydroxy-7-carboxamide], for which the IC50 at S. aureus DltA amounted to 280 nM; on E. feacalis DltA, 610 nM; at E. feacium DltA, 1100 nM; at S. Agalactiae DltA, 11000 nM.
For `CN(CCO)c1cc(-c2ccc3c(c2)ncn3[C@@H]2CCCC[C@H]2F)c2nc[nH]c2c1C(N)=O` [Example 171], the IC50 on S. aureus DltA stood at 15 nM; on E. feacalis DltA, 6.7 nM; at E. feacium DltA, 40 nM; at S. Agalactiae DltA, 350 nM.
Taken in the same sequence, the figures for `NC(=O)c1c(N2CCC(CO)(CO)CC2)cc(-c2ccc3c(c2)ncn3C2CCCCC2)c2nc[nH]c12` [Example 211, 5-[4,4-bis(hydroxymethyl)-1-piperidyl]-7-(1-cyclohexylbenzimidazol-5-yl)-3H-benzimidazole-4-carboxamide] were 24 nM, 6.8 nM, 2 nM and 470 nM.
Consider `CN(C)CCN(C)c1cc(-c2cc3c4c(c2)ncn4CCO3)c2nc[nH]c2c1C(N)=O` [Example 165, 7-(3,4-Dihydro-5-oxa-1.2a-diaza-acenaphthylen-7-yl)-5-[(2-dimethylamino-ethyl)-methyl-amino]-3H-benzimidazole-4-carboxamide], for which the IC50 at S. aureus DltA was determined as 29 nM; at E. feacalis DltA, 26 nM; on E. feacium DltA, 90 nM; on S. Agalactiae DltA, 2200 nM.
For `CN(C)CCN(C)c1cc(-c2cncc(N3CCCC3)c2)c2nc[nH]c2c1C(N)=O` [Example 230, 5-[2-(dimethylamino)ethyl-methyl-amino]-7-(5-pyrrolidin-1-yl-3-pyridyl)-3H-benzimidazole-4-carboxamide], the half-maximal inhibitory concentration (IC50) came to 64 nM at S. aureus DltA, 30 nM on E. feacalis DltA, 280 nM on E. feacium DltA and 2100 nM on S. Agalactiae DltA.
For `CCn1cnc2cc(-c3cc(OCCN(C)C)c(C(N)=O)c4[nH]cnc34)ccc21` [Example 198, 6-(2-Dimethylamino-ethoxy)-1′-ethyl-1H,1′H-[4,5′]]bibenzimidazolyl-7-carboxamide methanesulfonic acid salt], the IC50 at S. Agalactiae DltA came out at 1400 nM.
As to `C[C@H]1CCCC(n2cnc3cc(-c4cc(N(C)CCN(C)C)c(C(N)=O)c5[nH]cnc45)ccc32)C1` (mixture of isomers) [Example 136], the results for the IC50 on S. aureus DltA and on S. Agalactiae DltA were 5.7 nM and 360 nM, respectively.

A word on the IC50: it is the concentration that inhibits the measured activity by half.
